Tests used:
[1] = tested on: cultured human mast cells (CHMC); assay: CHMC low cell density ionomycin activation: tryptase assay; format: cell-based; conditions: low cell density CHMC, tryptase, 3 pt, read-out: LD Tryptase, CHMC, Iono, 3 pt
[2] = tested on: cultured human mast cells (CHMC); assay: CHMC low cell density IgE activation: tryptase assay; format: cell-based; conditions: low cell density CHMC, IgE activation, tryptase
Outline: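 CHMC at 1000–1500 cells/well were preincubated 1 hr at 37° C., stimulated with anti-IgE for 30 minutes at 37° C., then pelleted. Supernatant tryptase was measured with a fluorogenic substrate after 30 min at room temperature, against un-stimulated control wells.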

[3] = Homo sapiens, Mast cell, 3 pt, read-out: LD Tryptase, CHMC, IgE, 3 pt
[4] = Homo sapiens, Mast cell, 8 pt, read-out: LD Tryptase, CHMC, IgE, 8 pt
[5] = 3 pt, read-out: LD Tryptase, CHMC, IgE, 3 pt
[6] = 8 pt, read-out: LD Tryptase, CHMC, IgE, 8 pt

Row | Compound | IC50 ([1]; Homo sapiens, Mast cell) [µM] | IC50 [2, 3] [µM] | IC50 [2, 4] [µM] | IC50 [1] [µM] | IC50 [2, 5] [µM] | IC50 [2, 6] [µM]
1 | CNC(=O)COc1cccc(Nc2ncc(F)c(N(C)c3cc(OC)cc(OC)c3)n2)c1 [Compound 398, N4-(3,5-Dimethoxyphenyl)-5-fluoro-N4-methyl-N2-[3-(N-methylamino)carbonylmethyleneoxyphenyl]-2,4-pyrimidinediamine] |  |  |  | > 10 | < 10 | 
2 | COc1cc(Nc2ncc(F)c(N(C)c3cc(OC)cc(OC)c3)n2)cc(OC)c1 [Compound 400] | > 10 | < 10 |  |  |  | 
3 | COC(=O)c1cc2cc(Nc3ncc(F)c(N(C)c4cc(OC)cc(OC)c4)n3)ccc2o1 [Compound 401] | < 10 | < 10 |  |  |  | 
4 | COc1cc(OC)cc(N(C)c2nc(Nc3ccc(Cl)c(OC)c3)ncc2F)c1 [Compound 405] | > 10 | < 10 |  |  |  | 
5 | COc1cc(Nc2ncc(F)c(Nc3ccc(OC(C)(C)C(=O)O)c(Cl)c3)n2)cc(OC)c1 [Compound 409, N4-[3-Chloro-4-(hydroxycarbonyl-1,1-dimethylmethyleneoxy)phenyl]-N2-(3,5-dimethoxyphenyl)-5-fluoro-2,4-pyrimidinediamine] |  |  |  | > 10 | < 10 | < 10
6 | CCOC(=O)C(C)(C)Oc1ccc(Nc2nc(Nc3ccc(OC)c(Cl)c3)ncc2F)cc1Cl [Compound 410, N4-[3-Chloro-4-(ethoxycarbonyl-1,1-dimethylmethyleneoxy)phenyl]-N2-(3-chloro-4-methoxyphenyl)-5-fluoro-2,4-pyrimidinediamine] |  |  |  | < 10 | < 10 | < 10
7 | CN(c1ccc2c(c1)OCCO2)c1nc(Nc2cccc(-c3ncco3)c2)ncc1F [Compound 412] | < 10 | < 10 |  |  |  | 
8 | COc1ccc(Nc2nc(Nc3cc(C)cc(C)c3)ncc2F)cc1OC [Compound 413] | > 10 | < 10 | < 10 |  |  | 
9 | COc1cc(Nc2ncc(F)c(Nc3ccc(OC)c(OC)c3)n2)cc(OC)c1 [Compound 414, N2-(3,5-Dimethoxyphenyl)-N4-(3,4-dimethoxyphenyl)-5-fluoro-2,4-pyrimidinediamine] | > 10 | < 10 | < 10 |  |  | 
10 | CCOC(=O)c1cc2cccc(Nc3ncc(F)c(Nc4ccc(OC)c(OC)c4)n3)c2[nH]1 [Compound 415, N4-(3,4-Dimethoxyphenyl)-N2-[2-(ethoxycarbonyl)indol-7-yl]-5-fluoro-2,4-pyrimidinediamine] | > 10 | < 10 | < 10 |  |  | 
11 | CN(c1ccc2c(c1)OCCO2)c1nc(Nc2ccc(-c3ncco3)cc2)ncc1F [Compound 416] | > 10 | < 10 |  |  |  | 
12 | COc1ccc(Nc2nc(Nc3cccc(-c4cnco4)c3)ncc2F)cc1OC [Compound 419, N4-(3,4-Dimethoxyphenyl)-5-fluoro-N2-[3-(oxazol-5-yl)phenyl]-2,4-pyrimidinediamine] | > 10 | < 10 | < 10 |  |  | 
13 | COC(=O)CN(c1ccc2c(c1)OCCO2)c1nc(Nc2ccc3cc[nH]c3c2)ncc1F [Compound 420, N4-(3,4-Ethylenedioxyphenyl)-5-fluoro-N2-(indol-6-yl)-N4-(methoxycarbonylmethyl)-2,4-pyrimidinediamine] | > 10 | < 10 |  |  |  | 
14 | COc1ccc(Nc2nc(Nc3ccc(-c4ncco4)cc3)ncc2F)cc1OC [Compound 424] | > 10 | < 10 |  |  |  | 
15 | CC(=O)N1CCN(c2cccc(Nc3ncc(F)c(Nc4ccc5c(c4)OCCO5)n3)c2)CC1 [Compound 426] | > 10 | < 10 | < 10 |  |  | 
16 | CC(=O)N1CCN(c2ccc(Nc3ncc(F)c(Nc4ccc5c(c4)OCCO5)n3)cc2)CC1 [Compound 427, N2-[4-(4-Acetylpiperazino)phenyl]-N4-(3,4-ethylenedioxyphenyl)-5-fluoro-2,4-pyrimidinediamine] | > 10 | < 10 | < 10 |  |  | 
17 | COc1cc(Nc2nc(Nc3cccc(N4CCN(C(C)=O)CC4)c3)ncc2F)cc(OC)c1 [Compound 428, N2-[3-(4-Acetylpiperazino)phenyl]-N4-(3,5-dimethoxyphenyl)-5-fluoro-2,4-pyrimidinediamine] | > 10 | < 10 |  |  |  | 
18 | COc1ccc(Nc2nc(Nc3cccc(N4CCN(C(C)=O)CC4)c3)ncc2F)cc1OC [Compound 429, N2-[3-(4-Acetylpiperazino)phenyl]-N4-(3,4-dimethoxyphenyl)-5-fluoro-2,4-pyrimidinediamine] | > 10 | < 10 |  |  |  | 
19 | COc1ccc(Nc2nc(Nc3ccc(N4CCN(C(C)=O)CC4)cc3)ncc2F)cc1OC [Compound 430, N2-[4-(4-Acetylpiperazino)phenyl]-N4-(3,4-dimethoxyphenyl)-5-fluoro-2,4-pyrimidinediamine] | > 10 | < 10 |  |  |  | 
20 | CC(=O)N1CCN(c2cccc(Nc3ncc(F)c(Nc4ccc5c(c4)OC(F)(F)C(F)(F)O5)n3)c2)CC1 [Compound 431] |  |  |  | > 10 | < 10 | < 10
21 | COc1cc(Nc2ncc(F)c(N(C)c3ccc(OC)c(OC)c3)n2)cc(OC)c1 [Compound 434] | > 10 | < 10 |  |  |  | 
22 | COc1cc(Nc2nc(Nc3ccc(N4CCN(C(C)=O)CC4)cc3)ncc2F)cc(OC)c1 [Compound 437] | > 10 | < 10 |  |  |  | 
23 | COC(=O)CN(c1ccc2c(c1)OCCO2)c1nc(Nc2cc(C)cc(C)c2)ncc1F [Compound 441] | > 10 | < 10 |  |  |  | 
24 | COC(=O)CN(c1ccc2c(c1)OCCO2)c1nc(Nc2cccc(-c3ncco3)c2)ncc1F [Compound 444] | > 10 | < 10 |  |  |  | 

The next lines start with the values.

Row | IC50 ([1]; Homo sapiens, Mast cell) [µM] | IC50 [2, 3] [µM] | IC50 [2, 4] [µM] | IC50 [1] [µM] | IC50 [2, 5] [µM] | IC50 [2, 6] [µM] | Compound
25 | < 10 | < 10 | < 10 |  |  |  | COc1cc(Nc2ncc(F)c(Nc3ccc4c(c3)N(C)C(=O)C(C)(C)O4)n2)cc(OC)c1 [Compound 397]
26 | > 10 | > 10 |  |  |  |  | COc1cc(OC)cc(N(C)c2nc(Nc3ccc(OC)c(Cl)c3)ncc2F)c1 [Compound 404, N2-(3-Chloro-4-methoxyphenyl)-N4-(3,5-dimethoxyphenyl)-5-fluoro-N4-methyl-2,4-pyrimidinediamine]
27 | > 10 | < 10 |  |  |  |  | CNC(=O)c1cc2cccc(Nc3ncc(F)c(N(C)c4cc(OC)cc(OC)c4)n3)c2[nH]1 [Compound 406, N4-(3,5-Dimethoxyphenyl)-5-fluoro-N4-methyl-N2-[2-(N-methylamino)carbonylindol-7-yl]-2,4-pyrimidinediamine]
28 | > 10 | < 10 | < 10 |  |  |  | CN(c1ccc2c(c1)OCCO2)c1nc(Nc2cccc(-c3cnco3)c2)ncc1F [Compound 411]
29 | > 10 | > 10 |  |  |  |  | COC(=O)CN(c1ccc2c(c1)OCCO2)c1nc(Cl)ncc1F [Compound 418]
30 | > 10 | < 10 |  |  |  |  | CNC(=O)c1cc2cccc(Nc3ncc(F)c(Nc4ccc(OC)c(OC)c4)n3)c2[nH]1 [Compound 421, N4-(3,4-Dimethoxyphenyl)-5-fluoro-N2-[2-(N-methylaminocarbonyl)indol-7-yl]-2,4-pyrimidinediamine]
31 | > 10 | < 10 | < 10 |  |  |  | COc1ccc(Nc2nc(Nc3ccc(-c4cnco4)cc3)ncc2F)cc1OC [Compound 422, N4-(3,4-Dimethoxyphenyl)-5-fluoro-N2-[4-(oxazol-5-yl)phenyl]-2,4-pyrimidinediamine]
32 | > 10 | < 10 | < 10 |  |  |  | COc1ccc(Nc2ncc(F)c(Nc3ccc(OC)c(OC)c3)n2)cc1Cl [Compound 425, N2-(3-Chloro-4-methoxyphenyl)-N4-(3,4-dimethoxyphenyl)-5-fluoro-2,4-pyrimidinediamine]
33 |  |  |  | > 10 | < 10 |  | CC(=O)N1CCN(c2ccc(Nc3ncc(F)c(Nc4ccc5c(c4)OC(F)(F)C(F)(F)O5)n3)cc2)CC1 [Compound 432]
34 | > 10 | < 10 |  |  |  |  | COc1ccc(N(C)c2nc(Nc3cc(C)cc(C)c3)ncc2F)cc1OC [Compound 433]
35 | > 10 | < 10 |  |  |  |  | CCOC(=O)c1cc2cccc(Nc3ncc(F)c(N(C)c4ccc(OC)c(OC)c4)n3)c2[nH]1 [Compound 435, N4-(3,4-Dimethoxyphenyl)-N2-[2-(ethoxycarbonyl)indol-7-yl]-5-fluoro-N4-methyl-2,4-pyrimidinediamine]
36 | > 10 | < 10 |  |  |  |  | COc1ccc(N(C)c2nc(Nc3ccc4cc[nH]c4c3)ncc2F)cc1OC [Compound 436, N4-(3,4-Dimethoxyphenyl)-5-fluoro-N2-(indol-6-yl)-N4-methyl-2,4-pyrimidinediamine]
37 | > 10 | < 10 | < 10 |  |  |  | COc1ccc(N(C)c2nc(Nc3cccc(-c4cnco4)c3)ncc2F)cc1OC [Compound 438, N4-(3,4-Dimethoxyphenyl)-5-fluoro-N4-methyl-N2-[3-(oxazol-5-yl)phenyl]-2,4-pyrimidinediamine]
38 | > 10 | < 10 |  |  |  |  | COc1ccc(N(C)c2nc(Nc3ccc(-c4ncco4)cc3)ncc2F)cc1OC [Compound 440, N4-(3,4-Dimethoxyphenyl)-5-fluoro-N4-methyl-N2-[4-(oxazol-2-yl)phenyl]-2,4-pyrimidinediamine]
39 | > 10 | < 10 |  |  |  |  | COC(=O)CN(c1ccc2c(c1)OCCO2)c1nc(Nc2cc(OC)cc(OC)c2)ncc1F [Compound 442]
40 | > 10 | < 10 |  |  |  |  | COC(=O)CN(c1ccc2c(c1)OCCO2)c1nc(Nc2cccc(-c3cnco3)c2)ncc1F [Compound 443]
41 | > 10 | < 10 |  |  |  |  | COC(=O)CN(c1ccc2c(c1)OCCO2)c1nc(Nc2ccc(-c3ncco3)cc2)ncc1F [Compound 445]
